In article PMC12406203 (Journal of Medicinal Chemistry, 2025):

Assays:
Experiment in all cases: KINOMEscan
Assay type in all cases: binding
[1] = biological target: T1, INSR (Homo sapiens, UniProt P06213)
T1 construct: purchased Eurofins DiscoverX, LLC; host or cells: E. coli (T7 phage) or HEK-293

[2] = biological target: T2, CDK7 (Homo sapiens, UniProt P50613)
T2 construct: purchased Eurofins DiscoverX, LLC; host or cells: E. coli BL21-derived (T7 phage) or HEK-293

[3] = biological target: T3, KIT (Homo sapiens, UniProt P10721)
T3 construct: purchased Eurofins DiscoverX, LLC; host or cells: E. coli (BL21-derived, T7 phage) or HEK-293
T3 sequence (P10721 26-976): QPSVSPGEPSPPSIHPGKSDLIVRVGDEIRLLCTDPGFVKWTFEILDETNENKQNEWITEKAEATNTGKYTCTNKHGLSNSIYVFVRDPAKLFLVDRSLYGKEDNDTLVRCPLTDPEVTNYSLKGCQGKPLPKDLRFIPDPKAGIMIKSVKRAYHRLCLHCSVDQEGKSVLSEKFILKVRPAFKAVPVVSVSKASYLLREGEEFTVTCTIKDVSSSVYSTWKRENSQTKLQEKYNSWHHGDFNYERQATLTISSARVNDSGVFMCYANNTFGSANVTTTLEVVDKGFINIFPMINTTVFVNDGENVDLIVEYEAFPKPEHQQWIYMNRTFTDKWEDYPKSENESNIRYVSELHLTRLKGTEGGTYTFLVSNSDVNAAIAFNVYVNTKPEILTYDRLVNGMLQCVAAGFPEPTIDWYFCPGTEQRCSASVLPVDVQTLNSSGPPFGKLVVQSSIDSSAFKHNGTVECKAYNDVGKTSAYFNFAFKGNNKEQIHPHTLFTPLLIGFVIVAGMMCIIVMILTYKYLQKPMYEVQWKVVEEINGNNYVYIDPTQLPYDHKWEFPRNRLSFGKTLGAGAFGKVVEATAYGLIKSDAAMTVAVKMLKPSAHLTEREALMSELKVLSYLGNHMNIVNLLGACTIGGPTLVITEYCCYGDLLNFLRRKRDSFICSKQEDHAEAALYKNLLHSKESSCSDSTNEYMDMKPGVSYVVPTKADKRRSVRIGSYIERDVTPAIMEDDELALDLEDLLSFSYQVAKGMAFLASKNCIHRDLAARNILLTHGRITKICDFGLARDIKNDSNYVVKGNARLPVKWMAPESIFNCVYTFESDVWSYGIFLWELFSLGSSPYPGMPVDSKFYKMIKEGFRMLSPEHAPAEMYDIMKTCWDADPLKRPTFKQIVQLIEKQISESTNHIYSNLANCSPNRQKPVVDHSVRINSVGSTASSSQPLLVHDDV

[4] = biological target: T4, ALK (Homo sapiens, UniProt Q9UM73)
T4 construct: purchased Eurofins DiscoverX, LLC; host or cells: E. coli BL21-derived (T7 phage) or HEK-293
T4 sequence (Q9UM73 19-1620): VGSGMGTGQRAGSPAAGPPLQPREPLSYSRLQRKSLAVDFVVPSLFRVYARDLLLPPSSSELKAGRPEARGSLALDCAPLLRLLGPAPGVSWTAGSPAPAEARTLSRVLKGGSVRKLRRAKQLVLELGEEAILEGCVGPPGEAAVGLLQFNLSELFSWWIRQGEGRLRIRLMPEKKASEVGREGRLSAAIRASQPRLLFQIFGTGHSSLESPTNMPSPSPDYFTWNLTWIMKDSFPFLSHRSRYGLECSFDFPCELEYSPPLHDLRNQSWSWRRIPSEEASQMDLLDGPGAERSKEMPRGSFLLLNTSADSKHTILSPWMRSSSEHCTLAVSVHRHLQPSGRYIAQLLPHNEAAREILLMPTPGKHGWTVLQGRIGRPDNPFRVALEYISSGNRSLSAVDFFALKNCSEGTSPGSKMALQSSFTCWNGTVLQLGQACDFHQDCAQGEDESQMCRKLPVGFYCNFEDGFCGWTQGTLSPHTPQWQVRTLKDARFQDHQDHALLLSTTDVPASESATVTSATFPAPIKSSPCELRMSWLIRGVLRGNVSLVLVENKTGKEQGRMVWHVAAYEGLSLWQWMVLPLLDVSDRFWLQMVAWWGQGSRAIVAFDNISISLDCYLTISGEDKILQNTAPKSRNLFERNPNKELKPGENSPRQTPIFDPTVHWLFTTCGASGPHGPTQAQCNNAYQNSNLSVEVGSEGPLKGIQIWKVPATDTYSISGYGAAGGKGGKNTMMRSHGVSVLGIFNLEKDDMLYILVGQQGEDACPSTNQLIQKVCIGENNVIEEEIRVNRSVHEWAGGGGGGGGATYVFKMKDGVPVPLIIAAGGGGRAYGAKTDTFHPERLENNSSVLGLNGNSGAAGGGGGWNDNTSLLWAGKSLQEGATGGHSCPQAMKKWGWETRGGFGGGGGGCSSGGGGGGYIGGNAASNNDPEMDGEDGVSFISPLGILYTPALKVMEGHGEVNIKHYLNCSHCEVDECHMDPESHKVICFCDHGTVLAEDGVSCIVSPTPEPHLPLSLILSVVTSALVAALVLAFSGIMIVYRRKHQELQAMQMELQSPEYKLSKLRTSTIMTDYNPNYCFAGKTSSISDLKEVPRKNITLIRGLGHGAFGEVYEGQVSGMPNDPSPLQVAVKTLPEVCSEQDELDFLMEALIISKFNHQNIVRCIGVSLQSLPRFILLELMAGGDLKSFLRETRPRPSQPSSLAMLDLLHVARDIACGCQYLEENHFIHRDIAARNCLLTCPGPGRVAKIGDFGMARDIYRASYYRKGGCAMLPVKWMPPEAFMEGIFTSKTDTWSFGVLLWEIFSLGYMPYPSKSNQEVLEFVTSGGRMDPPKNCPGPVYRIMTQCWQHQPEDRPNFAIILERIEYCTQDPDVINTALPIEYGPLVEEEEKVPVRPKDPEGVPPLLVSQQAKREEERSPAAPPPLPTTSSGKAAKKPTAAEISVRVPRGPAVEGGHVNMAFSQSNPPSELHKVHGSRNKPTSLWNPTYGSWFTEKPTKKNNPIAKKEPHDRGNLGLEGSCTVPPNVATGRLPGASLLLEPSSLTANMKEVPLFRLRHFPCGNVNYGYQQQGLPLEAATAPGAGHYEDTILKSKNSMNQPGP

[5] = biological target: T5, PIM2 (Homo sapiens, UniProt Q9P1W9)
T5 construct: purchased Eurofins DiscoverX, LLC; host or cells: E. coli BL21-derived host (T7 phage) or HEK-293
T5 sequence (Q9P1W9 whole entry): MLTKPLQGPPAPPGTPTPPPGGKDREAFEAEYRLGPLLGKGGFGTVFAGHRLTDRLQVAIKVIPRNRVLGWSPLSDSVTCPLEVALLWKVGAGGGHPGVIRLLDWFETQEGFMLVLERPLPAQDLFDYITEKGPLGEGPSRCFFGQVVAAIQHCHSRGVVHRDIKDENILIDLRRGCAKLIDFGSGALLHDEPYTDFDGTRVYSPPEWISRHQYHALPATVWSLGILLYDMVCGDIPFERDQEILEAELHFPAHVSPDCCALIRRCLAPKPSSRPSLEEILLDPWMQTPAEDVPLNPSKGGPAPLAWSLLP

[6] = biological target: T6, BMPR2 (Homo sapiens, UniProt Q13873)
T6 construct: purchased Eurofins DiscoverX, LLC; host or cells: E. coli BL21-derived (T7 phage) or HEK-293
T6 sequence (Q13873 27-1038): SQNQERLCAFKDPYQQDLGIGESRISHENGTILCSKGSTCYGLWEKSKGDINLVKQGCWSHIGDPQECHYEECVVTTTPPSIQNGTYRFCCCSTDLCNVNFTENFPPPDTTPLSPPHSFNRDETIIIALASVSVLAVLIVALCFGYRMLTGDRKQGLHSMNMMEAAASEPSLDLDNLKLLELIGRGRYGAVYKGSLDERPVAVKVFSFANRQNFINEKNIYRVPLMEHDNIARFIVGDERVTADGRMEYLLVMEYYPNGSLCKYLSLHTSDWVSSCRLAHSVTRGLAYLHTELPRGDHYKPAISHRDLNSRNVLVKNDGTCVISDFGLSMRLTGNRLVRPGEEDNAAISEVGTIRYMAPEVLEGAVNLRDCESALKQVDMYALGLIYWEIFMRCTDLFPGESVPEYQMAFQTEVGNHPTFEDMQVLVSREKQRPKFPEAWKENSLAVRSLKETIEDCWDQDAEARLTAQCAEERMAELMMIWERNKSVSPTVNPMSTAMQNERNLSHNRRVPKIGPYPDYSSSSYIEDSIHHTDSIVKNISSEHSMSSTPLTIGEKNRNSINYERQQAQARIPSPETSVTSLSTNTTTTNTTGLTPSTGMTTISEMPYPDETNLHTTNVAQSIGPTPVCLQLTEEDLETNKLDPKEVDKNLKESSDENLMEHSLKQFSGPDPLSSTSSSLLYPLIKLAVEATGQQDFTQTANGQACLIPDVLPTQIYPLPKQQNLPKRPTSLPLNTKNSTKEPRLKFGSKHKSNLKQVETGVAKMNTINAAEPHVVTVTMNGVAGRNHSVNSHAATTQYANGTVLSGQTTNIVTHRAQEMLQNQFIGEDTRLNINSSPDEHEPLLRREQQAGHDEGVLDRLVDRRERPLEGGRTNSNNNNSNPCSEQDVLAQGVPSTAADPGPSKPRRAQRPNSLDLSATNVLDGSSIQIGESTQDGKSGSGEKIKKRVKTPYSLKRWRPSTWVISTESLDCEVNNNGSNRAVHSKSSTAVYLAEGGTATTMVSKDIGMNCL

T1 sequence (P06213 28-1382): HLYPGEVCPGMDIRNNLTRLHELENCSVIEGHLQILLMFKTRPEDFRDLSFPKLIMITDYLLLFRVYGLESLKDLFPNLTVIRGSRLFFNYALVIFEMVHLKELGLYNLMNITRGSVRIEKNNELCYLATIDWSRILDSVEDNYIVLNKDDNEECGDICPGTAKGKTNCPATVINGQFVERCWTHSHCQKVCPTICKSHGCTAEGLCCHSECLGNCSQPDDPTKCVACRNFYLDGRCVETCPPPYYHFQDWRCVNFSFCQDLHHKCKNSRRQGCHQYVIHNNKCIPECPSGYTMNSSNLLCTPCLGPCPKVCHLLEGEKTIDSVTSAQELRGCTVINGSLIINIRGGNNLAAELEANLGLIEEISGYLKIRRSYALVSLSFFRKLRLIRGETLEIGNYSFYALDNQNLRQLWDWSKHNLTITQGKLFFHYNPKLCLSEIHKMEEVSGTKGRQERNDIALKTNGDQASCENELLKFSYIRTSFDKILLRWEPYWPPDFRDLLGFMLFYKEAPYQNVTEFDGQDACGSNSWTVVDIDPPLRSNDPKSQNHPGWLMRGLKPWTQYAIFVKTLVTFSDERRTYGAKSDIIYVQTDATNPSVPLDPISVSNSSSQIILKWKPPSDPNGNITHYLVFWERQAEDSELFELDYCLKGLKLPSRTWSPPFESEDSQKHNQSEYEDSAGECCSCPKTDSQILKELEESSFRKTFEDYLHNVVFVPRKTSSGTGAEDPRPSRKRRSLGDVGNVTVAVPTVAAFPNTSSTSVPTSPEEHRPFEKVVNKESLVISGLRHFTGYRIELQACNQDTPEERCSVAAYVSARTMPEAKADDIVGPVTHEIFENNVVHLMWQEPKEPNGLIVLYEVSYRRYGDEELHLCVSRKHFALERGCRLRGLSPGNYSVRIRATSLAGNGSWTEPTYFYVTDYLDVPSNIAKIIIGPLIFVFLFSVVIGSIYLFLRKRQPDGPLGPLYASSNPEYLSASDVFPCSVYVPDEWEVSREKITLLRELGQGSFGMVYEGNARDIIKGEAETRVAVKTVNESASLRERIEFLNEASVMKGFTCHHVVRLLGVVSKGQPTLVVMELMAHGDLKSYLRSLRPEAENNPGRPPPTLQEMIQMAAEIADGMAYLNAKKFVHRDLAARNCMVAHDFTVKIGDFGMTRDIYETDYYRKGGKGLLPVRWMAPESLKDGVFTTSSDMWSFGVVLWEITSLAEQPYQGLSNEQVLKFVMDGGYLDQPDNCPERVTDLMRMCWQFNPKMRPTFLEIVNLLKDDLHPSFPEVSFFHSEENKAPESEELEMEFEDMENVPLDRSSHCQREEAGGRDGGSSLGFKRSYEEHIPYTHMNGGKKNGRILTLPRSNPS
T2 sequence (P50613 whole entry): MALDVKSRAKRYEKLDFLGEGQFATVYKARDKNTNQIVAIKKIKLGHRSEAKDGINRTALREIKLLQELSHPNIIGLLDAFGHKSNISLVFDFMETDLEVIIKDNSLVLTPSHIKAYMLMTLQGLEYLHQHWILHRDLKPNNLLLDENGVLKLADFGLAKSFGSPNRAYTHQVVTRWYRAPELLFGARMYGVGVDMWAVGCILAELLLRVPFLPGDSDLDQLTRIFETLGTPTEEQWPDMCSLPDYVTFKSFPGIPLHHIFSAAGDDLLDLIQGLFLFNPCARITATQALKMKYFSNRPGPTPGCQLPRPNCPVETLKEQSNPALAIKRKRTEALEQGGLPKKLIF

Q: How did the “RA @ 1000nM” value [1] turn out when `CC(C)Cn1ncc2cc(Cc3ccc(F)cc3F)c(C(=O)NCCN(C)C)cc21` [Compound 94, 5-(2,4-Difluorobenzyl)-N-(2-(dimethylamino)ethyl)-1-isobutyl-1H-indazole-6-carboxamide] was run?
A: Its value is 81%.

Q: What about the “RA @ 10000nM” value [1] of the same molecule?
A: The value was 90%.

Q: What about the “RA @ 1000nM” value [2] of the same molecule?
A: Its value is 79%.

Q: And the “RA @ 10000nM” value [2]?
A: The value was 86%.

Q: And the “RA @ 1000nM” value [3]?
A: Its value is 100%.

Q: What about the “RA @ 10000nM” value [3] of the same molecule?
A: The value was 100%.

Q: And the “RA @ 1000nM” value [4]?
A: The value was 93%.

Q: And the “RA @ 10000nM” value [4]?
A: The value was 83%.

Q: What about the “RA @ 1000nM” value [5] of the same molecule?
A: Its value is 100%.

Q: And the “RA @ 10000nM” value [5]?
A: The value was 100%.

Q: What about the “RA @ 1000nM” value [6] of the same molecule?
A: Its value is 86%.

Q: What about the “RA @ 10000nM” value [6] of the same molecule?
A: The value was 95%.

Q: Which results are given for `CN(C)CCNC(=O)c1cc2c(cnn2CC2CCCCC2)cc1Cc1ccc(F)cc1F` [Compound 95, 1-(Cyclohexylmethyl)-5-(2,4-difluorobenzyl)-N-(2-(dimethylamino)ethyl)-1H-indazole-6-carboxamide]?
A: RA @ 1000nM [1]: 84%; RA @ 10000nM [1]: 81%; RA @ 1000nM [2]: 88%; RA @ 10000nM [2]: 77%; RA @ 1000nM [3]: 100%; RA @ 10000nM [3]: 100%; RA @ 1000nM [4]: 62%; RA @ 10000nM [4]: 92%; RA @ 1000nM [5]: 100%; RA @ 10000nM [5]: 100%; RA @ 1000nM [6]: 89%; RA @ 10000nM [6]: 92%
